For 27 compounds, Ki results are on record in patent publication US8580802B2, “Pyrrolo[2,3-D]pyrimidines as inhibitors of Janus kinases” (Vertex Pharmaceuticals Incorporated, priority 2005, dated 2013).

For one assay, the target named is T1, JAK3 (Homo sapiens, UniProt P52333).
T1 sequence (P52333 1-1124): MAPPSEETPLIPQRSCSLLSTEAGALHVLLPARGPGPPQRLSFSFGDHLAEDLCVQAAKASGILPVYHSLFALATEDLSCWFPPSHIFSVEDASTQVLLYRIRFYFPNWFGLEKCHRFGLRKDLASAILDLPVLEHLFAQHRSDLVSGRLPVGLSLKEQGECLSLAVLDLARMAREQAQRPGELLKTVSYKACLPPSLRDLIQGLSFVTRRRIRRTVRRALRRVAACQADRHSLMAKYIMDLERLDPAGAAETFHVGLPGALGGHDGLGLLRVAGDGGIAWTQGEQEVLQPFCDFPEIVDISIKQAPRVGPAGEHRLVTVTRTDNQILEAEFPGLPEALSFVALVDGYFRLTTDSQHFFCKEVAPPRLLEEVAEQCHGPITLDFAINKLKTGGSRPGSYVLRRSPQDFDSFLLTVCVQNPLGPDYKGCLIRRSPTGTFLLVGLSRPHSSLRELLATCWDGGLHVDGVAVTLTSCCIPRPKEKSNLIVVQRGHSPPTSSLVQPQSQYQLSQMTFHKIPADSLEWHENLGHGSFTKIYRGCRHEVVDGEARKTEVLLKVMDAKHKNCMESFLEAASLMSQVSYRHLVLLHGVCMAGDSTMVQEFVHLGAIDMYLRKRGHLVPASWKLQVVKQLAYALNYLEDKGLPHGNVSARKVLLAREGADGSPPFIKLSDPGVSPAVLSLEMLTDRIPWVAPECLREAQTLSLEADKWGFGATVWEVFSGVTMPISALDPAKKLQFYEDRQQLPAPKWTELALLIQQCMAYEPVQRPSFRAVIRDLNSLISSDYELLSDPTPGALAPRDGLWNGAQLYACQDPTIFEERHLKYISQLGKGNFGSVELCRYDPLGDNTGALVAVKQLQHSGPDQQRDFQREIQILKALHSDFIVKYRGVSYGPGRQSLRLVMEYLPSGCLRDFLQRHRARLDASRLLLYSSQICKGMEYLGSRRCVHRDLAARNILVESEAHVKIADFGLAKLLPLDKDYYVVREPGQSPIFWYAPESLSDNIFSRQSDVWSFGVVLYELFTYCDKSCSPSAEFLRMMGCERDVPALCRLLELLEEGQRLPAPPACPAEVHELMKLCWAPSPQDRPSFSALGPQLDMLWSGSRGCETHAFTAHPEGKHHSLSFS
The experiment in a line: JAK3 Inhibition Assay. Type of assay: biochemical. The conditions noted are these: 1 nM JAK3, 1 μM poly(Glu)4Tyr, 5 μM ATP, 25° C.; read-out: enzyme inhibition data (Ki) JAK3. Here is the method: (§1) Compounds were screened for their ability to inhibit JAK3 using the assay shown below. Reactions were carried out in a kinase buffer containing 100 mM HEPES (pH 7.4), 1 mM DTT, 10 mM MgCl2, 25 mM NaCl, and 0.01% BSA. Substrate concentrations in the assay were 5 μM ATP (200 uCi/μmole ATP) and 1 μM poly(Glu)4Tyr. Reactions were carried out 25° C. and 1 nM JAK3.
(§2) To each well of a 96 well polycarbonate plate was added 1.5 μl of a candidate JAK3 inhibitor along with 50 μl of kinase buffer containing 2 μM poly(Glu)4Tyr and 10 μM ATP. This was then mixed and 50 μl of kinase buffer containing 2 nM JAK3 enzyme was added to start the reaction. After 20 minutes at room temperature (25° C.), the reaction was stopped with 50 μl of 20% trichloroacetic acid (TCA) that also contained 0.4 mM ATP. The entire contents of each well were then transferred to a 96 well glass fiber filter plate using a TomTek Cell Harvester. After washing, 60 μl of scintillation fluid was added and ^33P incorporation detected on a Perkin Elmer TopCount.

The target in the next assay is JAK2 (Homo sapiens, UniProt O60674). The experiment in a line: JAK2 Inhibition Assay. It counts as biochemical. The conditions noted are these: JAK-2 enzyme, 15 μM poly(Glu)4Tyr, 12 μM ATP. On the procedure: as §1, §2
JAK2, sequence (O60674 whole entry): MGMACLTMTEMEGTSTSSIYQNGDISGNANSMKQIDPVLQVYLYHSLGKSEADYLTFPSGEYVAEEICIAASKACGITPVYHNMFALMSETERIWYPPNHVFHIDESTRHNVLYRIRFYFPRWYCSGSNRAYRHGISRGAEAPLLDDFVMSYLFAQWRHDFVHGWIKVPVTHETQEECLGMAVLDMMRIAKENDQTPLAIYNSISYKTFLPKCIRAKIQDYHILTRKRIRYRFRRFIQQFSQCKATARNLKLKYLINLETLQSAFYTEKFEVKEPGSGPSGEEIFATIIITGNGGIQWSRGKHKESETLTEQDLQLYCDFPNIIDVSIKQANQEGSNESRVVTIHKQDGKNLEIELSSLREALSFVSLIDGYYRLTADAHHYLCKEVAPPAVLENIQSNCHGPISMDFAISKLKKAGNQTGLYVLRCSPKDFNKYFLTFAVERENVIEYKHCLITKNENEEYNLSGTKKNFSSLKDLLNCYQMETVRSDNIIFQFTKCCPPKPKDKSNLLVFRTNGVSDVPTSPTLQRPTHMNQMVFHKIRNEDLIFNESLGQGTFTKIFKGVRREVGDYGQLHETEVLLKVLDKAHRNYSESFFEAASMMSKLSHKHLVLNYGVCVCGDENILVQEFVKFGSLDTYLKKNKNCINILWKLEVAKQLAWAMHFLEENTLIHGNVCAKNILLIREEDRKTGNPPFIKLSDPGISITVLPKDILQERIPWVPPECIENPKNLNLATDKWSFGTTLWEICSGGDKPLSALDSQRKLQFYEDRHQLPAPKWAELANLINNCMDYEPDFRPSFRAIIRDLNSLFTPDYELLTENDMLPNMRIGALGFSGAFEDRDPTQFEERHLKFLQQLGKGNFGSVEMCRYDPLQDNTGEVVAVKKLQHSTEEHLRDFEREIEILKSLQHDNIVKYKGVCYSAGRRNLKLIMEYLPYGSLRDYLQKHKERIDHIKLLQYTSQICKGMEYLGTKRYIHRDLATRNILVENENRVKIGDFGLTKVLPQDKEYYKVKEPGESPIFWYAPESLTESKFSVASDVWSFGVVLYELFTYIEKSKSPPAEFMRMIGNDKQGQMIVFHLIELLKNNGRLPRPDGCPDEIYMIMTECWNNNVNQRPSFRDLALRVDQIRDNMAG
The assays were as described above in Example 36 except that JAK-2 enzyme was used, the final poly(Glu)4Tyr concentration was 15 μM, and final ATP concentration was 12 μM.

By pKi is commonly meant −log10 of the Ki, conventionally taken in molar units.

pKi: −log10 of the molar value. Structures can show the parent of a compound that is named as a salt.

`C1=C(c2cccc(-c3c[nH]c4ncncc34)n2)CCNC1` [Compound 29, 6-(7H-Pyrrolo[2,3-d]pyrimidin-5-yl)-1′,2′,3′,6′-tetrahydro-[2,4′]bipyridinyl hydrochloride]: the pKi at JAK3 and at JAK2 was 5.30 to 6.30 each time.

For the compound `N#CCC(=O)N1CC=C(c2cccc(-c3c[nH]c4ncncc34)n2)CC1` [Compound 30, 3-(4-(6-(7H-pyrrolo[2,3-d]pyrimidin-5-yl)pyridin-2-yl)-5,6-dihydropyridin-1(2H)-yl)-3-oxopropanenitrile], the pKi on JAK3 and on JAK2 was over 6.30 each time.

`C[C@H](Nc1nc(-c2c[nH]c3ncncc23)cc(N2CCCC2)n1)C(=O)NCC(F)(F)F` [Compound 31, (S)-2-(4-(pyrrolidin-1-yl)-6-(7H-pyrrolo[2,3-d]pyrimidin-5-yl)pyrimidin-2-ylamino)-N-(2,2,2-trifluoroethyl)propanamide]: the values for the pKi on JAK3 and on JAK2 were 5.30 to 6.30 and under 5.30, respectively.

On to `C[C@H](Nc1cc(N2CCCC2)nc(-c2c[nH]c3ncncc23)n1)C(=O)NCC(F)(F)F` [Compound 32, (S)-2-(6-(pyrrolidin-1-yl)-2-(7H-pyrrolo[2,3-d]pyrimidin-5-yl)pyrimidin-4-ylamino)-N-(2,2,2-trifluoroethyl)propanamide], for which the pKi on JAK3 and on JAK2 was under 5.30 throughout.

`C[C@H](Nc1nc(-c2c[nH]c3ncncc23)nc(N2CCCC2)n1)C(=O)NCC(F)(F)F` [Compound 33, (S)-2-(4-(pyrrolidin-1-yl)-6-(7H-pyrrolo[2,3-d]pyrimidin-5-yl)-1,3,5-triazin-2-ylamino)-N-(2,2,2-trifluoroethyl)propanamide]: the pKi on JAK3 and on JAK2 was under 5.30 each time.

Regarding `C[C@H](Nc1nc(-c2c[nH]c3ncncc23)nc2ccccc12)C(=O)NCC(F)(F)F` [Compound 34], the pKi at JAK3 is over 6.30; on JAK2 it was 5.30 to 6.30.

With `C[C@H](Nc1nc(-c2c[nH]c3ncncc23)cc(N2CCOCC2)n1)C(=O)NCC(F)(F)F` [Compound 35], the pKi at JAK3 is 5.30 to 6.30; on JAK2, under 5.30.

Regarding `C[C@H](Nc1cc(N2CCOCC2)nc(-c2c[nH]c3ncncc23)n1)C(=O)NCC(F)(F)F` [Compound 36, (S)-2-(6-morpholino-2-(7H-pyrrolo[2,3-d]pyrimidin-5-yl)pyrimidin-4-ylamino)-N-(2,2,2-trifluoroethyl)propanamide], the pKi at JAK3 and at JAK2 was under 5.30 each time.

Consider `C[C@H](Nc1nc(-c2c[nH]c3ncncc23)nc(N2CCOCC2)n1)C(=O)NCC(F)(F)F` [Compound 37, (S)-2-(4-morpholino-6-(7H-pyrrolo[2,3-d]pyrimidin-5-yl)-1,3,5-triazin-2-ylamino)-N-(2,2,2-trifluoroethyl)propanamide], for which the pKi on JAK3 and on JAK2 was under 5.30 in each case.

In the case of `C[C@@H](Nc1nc(-c2c[nH]c3ncncc23)nc2ccccc12)C(=O)NCC(F)(F)F` [Compound 38], the pKi on JAK3 and on JAK2 was over 6.30 in each case.

On to `C[C@@H](Nc1ccnc(-c2c[nH]c3ncncc23)n1)C(=O)NCC(F)(F)F` [Compound 39, (R)-2-(2-(7H-pyrrolo[2,3-d]pyrimidin-5-yl)pyrimidin-4-ylamino)-N-(2,2,2-trifluoroethyl)propanamide], for which the pKi at JAK3 and on JAK2 was over 6.30 throughout.

For `C[C@@H](Nc1nc(-c2c[nH]c3ncncc23)ncc1F)C(=O)NCC(F)(F)F` [Compound 40, (R)-2-(5-fluoro-2-(7H-pyrrolo[2,3-d]pyrimidin-5-yl)pyrimidin-4-ylamino)-N-(2,2,2-trifluoroethyl)propanamide], the pKi at JAK3 and at JAK2 was over 6.30 each time.

As for `CC[C@H](Nc1nc(-c2c[nH]c3ncncc23)ncc1F)C(=O)NCC(F)(F)F` [Compound 41, (S)-2-(5-fluoro-2-(7H-pyrrolo[2,3-d]pyrimidin-5-yl)pyrimidin-4-ylamino)-N-(2,2,2-trifluoroethyl)butanamide], the pKi on JAK3 is over 6.30; at JAK2, 5.30 to 6.30.

Turning to `COC[C@H](Nc1nc(-c2c[nH]c3ncncc23)ncc1F)C(=O)NCC(F)(F)F` [Compound 42, (S)-2-(5-fluoro-2-(7H-pyrrolo[2,3-d]pyrimidin-5-yl)pyrimidin-4-ylamino)-N-(2,2,2-trifluoroethyl)-3-methoxypropanamide], the pKi on JAK3 is over 6.30; on JAK2, 5.30 to 6.30.

In the case of `CNC(=O)C(CC(F)(F)F)Nc1nc(-c2c[nH]c3ncncc23)ncc1F` (stereo not drawn) [Compound 43, 2-(5-fluoro-2-(7H-pyrrolo[2,3-d]pyrimidin-5-yl)pyrimidin-4-ylamino)-4,4,4-trifluoro-N-methylbutanamide], the pKi on JAK3 and at JAK2 was 5.30 to 6.30 in each case.

For the compound `CCNC(=O)C(CC(F)(F)F)Nc1nc(-c2c[nH]c3ncncc23)ncc1F` (stereo not drawn) [Compound 44, 2-(5-fluoro-2-(7H-pyrrolo[2,3-d]pyrimidin-5-yl)pyrimidin-4-ylamino)-N-ethyl-4,4,4-trifluorobutanamide], the pKi on JAK3 and at JAK2 was 5.30 to 6.30 in each case.

Consider `O=C(NCC(F)(F)F)C(CC(F)(F)F)Nc1nc(-c2c[nH]c3ncncc23)ncc1F` (stereo not drawn) [Compound 45, 2-(5-fluoro-2-(7H-pyrrolo[2,3-d]pyrimidin-5-yl)pyrimidin-4-ylamino)-4,4,4-trifluoro-N-(2,2,2-trifluoroethyl)butanamide], for which the pKi on JAK3 and at JAK2 was over 6.30 each time.

For `C[C@H](Nc1nc(-c2c[nH]c3ncncc23)ccc1[N+](=O)[O-])C(=O)NCC(F)(F)F` [Compound 46], the pKi is over 6.30 on JAK3 and 5.30 to 6.30 at JAK2.

On to `COC[C@H](Nc1nc(-c2c[nH]c3ncncc23)nc2ccccc12)C(=O)NCC(F)(F)F` [Compound 47], for which the pKi at JAK3 is 5.30 to 6.30; at JAK2 it was under 5.30.

As to `COC[C@H](Nc1ccnc(-c2c[nH]c3ncncc23)n1)C(=O)NCC(F)(F)F` [Compound 48, (S)-2-(2-(7H-pyrrolo[2,3-d]pyrimidin-5-yl)pyrimidin-4-ylamino)-N-(2,2,2-trifluoroethyl)-3-methoxypropanamide], the pKi at JAK3 is 5.30 to 6.30; on JAK2, under 5.30.

On to `Nc1nc(-c2c[nH]c3ncncc23)ncc1F` [Compound 49], for which the pKi on JAK3 was 5.30 to 6.30; on JAK2 it was under 5.30.

Turning to `O=C(NCC(F)(F)F)[C@H](CO)Nc1nc(-c2c[nH]c3ncncc23)ncc1F` [Compound 50], the pKi was over 6.30 at JAK3 and 5.30 to 6.30 at JAK2.

For `O=C(NCC(F)(F)F)[C@H](CO)Nc1ccnc(-c2c[nH]c3ncncc23)n1` [Compound 51], the pKi on JAK3 and on JAK2 was under 5.30 in each case.

Take `O=C(NCC(F)(F)F)[C@@H]1C[C@H](F)CN1c1nc(-c2c[nH]c3ncncc23)ncc1F` [Compound 52]: the pKi on JAK3 and at JAK2 was 5.30 to 6.30 throughout.

`O=C(NCC(F)(F)F)[C@@H]1C[C@@H](F)CN1c1nc(-c2c[nH]c3ncncc23)ncc1F` [Compound 53]: the pKi at JAK3 was 5.30 to 6.30; at JAK2, under 5.30.

For `O=C(NCC(F)(F)F)[C@H]1CCCCN1c1cnc(-c2c[nH]c3ncncc23)nc1` [Compound 54], the pKi on JAK3 and at JAK2 was over 6.30 each time.

With `O=C(NCC(F)(F)F)[C@@H]1CCN1c1cnc(-c2c[nH]c3ncncc23)nc1` [Compound 55], the pKi at JAK3 and at JAK2 was 5.30 to 6.30 throughout.
